Structures are written as SMILES. Several values for one entry are separate records, joined by “and”; a condition that tells them apart may be missing. Equal values may be shown once. Read-outs that look alike come from different tables or passages of the source.

One data set relates to CEN of orthobunyaviruses. Details: method as in PMID 32766680, PMID 38656310. The conditions noted are these: cited from earlier work.
The subject of data set [1] is LACV passage control WT. The experiment in a line: microbe, parasite or virus in culture. Type of data set: cell-based. The conditions noted are these: La Crosse virus, SH-SY5Y.
Data set [2] is classed as in vivo. The conditions noted are these: uninfected mice; s.c. once daily for 7 days.
In data set [3] the test system is LACV. Type of data set: cell-based, La Crosse virus.
Data set [4] is described as follows: Cell viability assay (MTT), uninfected SH-SY5Y cells. Type of data set: cell-based. The conditions noted are these: human, MTT at 3 dpi, mean ± SD. The method, then:
(§1) CPE-based antiviral activity and cell viability assays were conducted as previously reported ([23]), with several modifications. Vero and SH-SY5Y cells were treated with serially diluted compounds in minimum essential medium (MEM) containing 2% FBS. In the antiviral evaluation, the cells were infected with LACV (40–80 plaque-forming unit [PFU]/well for Vero and 300–4,000 PFU/well for SH-SY5Y cells). In the cell viability assays, the cells treated with the compounds were cultured in the absence of viral infection. After 2 or 3 days of culture, the cells were stained with 3-(4,5-dimethylthiazol-2-yl)-2,5-diphenyltetrazolium bromide (MTT). The antiviral activity (50% effective concentration values, EC50) was calculated using Prism version 9.5.1 (GraphPad, La Jolla, CA, USA) using the four-parameter logistic method. Non-infected and non-treated cells were defined as the 100% inhibition control, while LACV-infected and non-treated cells were defined as the 0% inhibition control. Cell viability (50% cytotoxicity concentration values, CC50) was calculated using the MTT assay. Non-treated control cells were defined as the 100% cell viability control, while wells containing culture medium without cells were defined as the 0% cell viability control. Selective Index (SI50) was calculated as the ratio of CC50 to EC50 (CC50/EC50).

Data set [5] relates to LACV passage control WT. The experiment in a line: microbe, parasite or virus in culture. Type of data set: cell-based. The conditions noted are these: La Crosse virus, Vero.
The subject of data set [6] is LACV. The experiment in a line: microbe, parasite or virus in culture. The format is cell-based, La Crosse virus.
Data set [7] has as its system LACV. Put plainly: microbe, parasite or virus in culture. Type of data set: cell-based, La Crosse virus. This is another data set of the same source.
Data set [8] deals with Bunyaviruses, including LACV. Details: method as in PMID 36037386. The conditions noted are these: cited from earlier work.
A short description of data set [9]: Cell viability assay (MTT), uninfected Vero cells. The format is cell-based. To be noted: African green monkey, mean ± SD. The method, then: as §1

As for `O=C1c2c(O)c(=O)ccn2N([C@@H]2c3ccccc3SCc3c2ccc(F)c3F)[C@@H]2COCCN12` [BXA, baloxavir acid], the “Binding to CEN and inhibition of enzymatic activity” value in the data set with CEN of orthobunyaviruses is “binds to the CEN of orthobunyaviruses and inhibits its enzymatic activity”.

For orientation: EC50 means the concentration at which the effect is half-maximal. A higher EC50 goes with weaker potency. In general, CC50 refers to the concentration that lowers cell viability or growth by half. As to `CC(C)N1CN(C2c3ccccc3CCc3ccccc32)n2cc(C(=O)O)c(=O)c(O)c2C1=O` [CAPCA-1, carbamoyl pyridone carboxylic acid (CAPCA)-1], the EC50 in the data set with LACV passage control WT [1] was 0.65 ± 0.05 µM; in the data set on LACV passage control WT [5], 0.79 ± 0.39 µM; in the data set on LACV [7], 0.69 µM and 0.95 µM; in the data set on LACV [7] (La Crosse virus, SH-SY5Y) it was < 1 µM. Further, in data set [2], the “Body weight changes versus vehicle-treated mice” value is given as “No significant differences in body weight changes”. The “Viral RNA expression, entry-stage treatment” value in the data set on LACV [3] is “no inhibitory effect”. The CC50 at 3 days in data set [4] was > 50 µM. The “EC50 lower than for T-705 and RBV” value in the data set with LACV [6] is recorded as “more than 50 fold”. For the same molecule, in the data set on LACV [6], the “Inhibition of LACV-induced cell death compared with other CEN inhibitors” value is “inhibited LACV-induced cell death at lower concentrations than the other CEN inhibitors”. For the same molecule, the “Antiviral activity compared with other CEN inhibitors” value with LACV [7] is “antiviral activity comparable to that of CAPCA-4 and demonstrated higher activity than CAPCA-2, -3, and -5”. The “Susceptibility of bunyaviruses among the four CEN inhibitors” value in data set [8] is reported as “most susceptible to CAPCA-1”. Moreover, the CC50 in [9] is > 50 µM.

As for `NC(=O)c1ncn([C@@H]2O[C@H](CO)[C@@H](O)[C@H]2O)n1` [RBV, Ribavirin, reference compound], in data set [4], the CC50 at 3 days worked out at 121 ± 7.61 µM. For the same molecule, the EC50 was > 100 µM with LACV [6] (La Crosse virus, Vero) and > 100 µM with LACV [7] (La Crosse virus, SH-SY5Y). For the same molecule, the CC50 in data set [9] stood at 82.1 ± 28.4 µM.

Take `NC(=O)c1nc(F)c[nH]c1=O` [T-705, favipiravir, reference compound]: the “Viral RNA expression, entry-stage treatment” value in the data set on LACV [3] is “no inhibitory effect”. In addition, the CC50 at 3 days in data set [4] is > 200 µM. In addition, the EC50 in the data set on LACV passage control WT [5] is 43.8 ± 11.5 µM; with LACV [6] it was 37.8 ± 3.96 µM; in the data set with LACV [6] (La Crosse virus, Vero), 33.9 ± 5.29 µM; in the data set on LACV [7] (La Crosse virus, SH-SY5Y), > 100 µM. In data set [9], this molecule showed a CC50 of 117 ± 24.7 µM.
